Results as given in patent US20090163586A1, “Bis-(Sulfonylamino) Derivatives in Therapy 205” (AstraZeneca AB, priority 2007, published 2009).

Target: T1, human mPGES-1 (Homo sapiens, UniProt O14684)
T1 sequence (O14684 1-152): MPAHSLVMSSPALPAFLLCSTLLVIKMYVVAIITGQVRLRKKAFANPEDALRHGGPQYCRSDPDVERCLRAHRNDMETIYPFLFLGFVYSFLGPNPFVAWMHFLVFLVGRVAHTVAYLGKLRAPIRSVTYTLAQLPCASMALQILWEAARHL
Assay: Microsomal prostaglandin E synthase biochemical assay
Settings: microsome preparation containing human mPGES-1; PGH2 10.8 μM, GSH 2.5 mM, pH 6.8; PGE2 by HTRF; average of at least n=2
Description: Compounds were tested as inhibitors of microsomal prostaglandin E synthase activity in microsomal prostaglandin E synthase assays and whole cell assays. These assays measure prostaglandin E2 (PGE2) synthesis which is taken as a measure of prostaglandin E synthase activity. Microsomal prostaglandin E synthase biochemical assays used microsomal prostaglandin E synthase-1 in microsomal preparations. The source of the microsomes can be for example interleukin-1β-stimulated human A549 cells (which express human mPGES-1) or Sf9 cells transfected with plasmids encoding human mPGES-1 cDNA. The whole blood assay [described by Patrignani, P. et al., Journal of Pharmacology and Experimental Therapeutics, 1994, vol. 271, pp 1705-1712] was used as the whole cell assay for testing the compounds. Whole blood provides a protein and cell rich milieu for the study of biochemical efficacy of anti-inflammatory compounds such as prostaglandin synthase inhibitors. To study the inhibitory activities of these compounds, human blood was stimulated with lipopolysaccharide (LPS) for typically 16 hours to induce mPGES-1 expression, after which the concentration of produced PGE2 was measured by competitive-immuno assay (homogeneous time-resolved fluorescence, HTRF) as read out for effectiveness against mPGES-1-dependent PGE2 production.
Microsomal Prostaglandin E Synthase Biochemical Assay
A solution of test compound was added to a diluted microsome preparation containing human mPGES-1 and pre-incubated for 15 minutes in potassium phosphate buffer pH 6.8 with cofactor glutathione (GSH). Corresponding solutions without test compound were used as positive controls, and corresponding solutions without test compound and without microsomes were used as negative controls. The enzymatic reaction was then started by addition of the substrate PGH2 in an organic solution (dry acetonitrile).
The typical reaction conditions of the enzymatic reaction were thus: Test compound: ranging from 60 μM to 0.002 μM, or zero in positive and negative controls; potassium phosphate buffer pH 6.8: 50 mM; GSH: 2.5 mM; mPGES-1-containing microsomes: 2 μg/mL (sample and positive controls) or 0 μg/mL (negative control); PGH2: 10.8 μM; Acetonitrile: 7.7% (v/v); DMSO: 0.6% (v/v). The reaction was stopped after one minute by adding an acidic solution (pH 1.9) of ferric chloride and citrate (final concentrations 7 mM and 47 mM respectively), by which the PGH2 was sequestered (the PGH2 is reduced to mainly 12-hydroxy heptadecatrineoic acid (12-HHT) which is not detected by the subsequent PGE2 detection step). The resulting solution was then pH neutralized by addition of potassium phosphate buffer, prior to diluting an aliquot of the resulting solution in a weak potassium phosphate buffer (50 mM, pH 6.8) containing 0.2% BSA (w/v). [Adapted from Jacobsson et al., Proc. Natl. Acad. Sci. USA, 1999, vol. 96, pp. 7220-7225]The PGE2 formed was quantified by use of a commercial HTRF based kit (catalogue #62PG2PEC or #62P2APEC from Cisbio International). 100% activity was defined as the PGE2 production in positive controls subtracted by the PGE2 production in the negative controls. IC50 values were then determined using standard procedures.
The potency is expressed as IC50 and the value indicated is an average of at least n=2.

Compound	IC50 [nM]
NS(=O)(=O)c1c(F)cccc1NS(=O)(=O)/C=C/c1cccc(Cl)c1 [Example 56, 2-[[(E)-2-(3-Chlorophenyl)ethenyl]sulfonylamino]-6-fluoro-benzenesulfonamide]	530
NS(=O)(=O)c1ccccc1NS(=O)(=O)/C=C/c1ccccc1Cl [Example 48, 2-[2-(2-Chloro-phenyl)-ethenesulfonylamino]-benzenesulfonamide]	590
NS(=O)(=O)c1ccccc1NS(=O)(=O)c1cccc(-c2cc(F)cc(F)c2)c1 [Example 114, 2-[[3-(3,5-difluorophenyl)phenyl]sulfonylamino]benzenesulfonamide]	830
Cn1nc(-c2ccc(S(=O)(=O)Nc3ccccc3S(N)(=O)=O)s2)cc1C(F)(F)F [Example 130, 5-(1-Methyl-5-trifluoromethyl-1H-pyrazol-3-yl)-thiophene-2-sulfonic acid (2-sulfamoyl-phenyl)-amide]	5200
NS(=O)(=O)c1cc(OCc2ccccn2)ccc1NS(=O)(=O)CCc1ccc(Cl)cc1 [Example 46, 2-[2-(4-Chlorophenyl)ethylsulfonylamino]-5-(pyridin-2-ylmethoxy)benzenesulfonamide]	1100
COc1cc(Cl)ccc1/C=C/S(=O)(=O)Nc1ccccc1S(N)(=O)=O [Example 49, 2-[2-(4-Chloro-2-methoxy-phenyl)-ethenesulfonylamino]-benzenesulfonamide]	36
NS(=O)(=O)c1c(F)cccc1NS(=O)(=O)/C=C/c1ccc(C(F)(F)F)cc1 [Example 90, 2-Fluoro-6-[[(E)-2-[4-(trifluoromethyl)phenyl]ethenyl]sulfonylamino]-benzenesulfonamide]	870
NS(=O)(=O)c1ccc(F)cc1NS(=O)(=O)/C=C/c1ccc(-c2cc3ccccc3o2)cc1 [Example 5, 2-[[(E)-2-(4-Benzofuran-2-ylphenyl)ethenyl]sulfonylamino]-4-fluoro-benzenesulfonamide]	40
Cc1ccc(/C=C/S(=O)(=O)Nc2ccccc2S(N)(=O)=O)cc1 [Example 82, 2-[[(E)-2-(4-Methylphenyl)ethenyl]sulfonylamino]benzenesulfonamide]	7300
NS(=O)(=O)c1cc(F)ccc1NS(=O)(=O)/C=C/c1cccc(C(F)(F)F)c1 [Example 54, 5-Fluoro-2-[[(E)-2-[3-(trifluoromethyl)phenyl]ethenyl]sulfonylamino]-benzenesulfonamide]	270
CSc1ccc(/C=C/S(=O)(=O)Nc2ccc(F)cc2S(N)(=O)=O)cc1 [Example 38, 5-Fluoro-2-[[(E)-2-(4-methylsulfanylphenyl)ethenyl]sulfonylamino]-benzenesulfonamide]	220
NS(=O)(=O)c1ccccc1NS(=O)(=O)c1ccccc1-c1ccc(Cl)c(Cl)c1 [Example 124, 2-(3,4-Dichlorophenyl)-N-(2-sulfamoylphenyl)benzenesulfonamide]	1300
NS(=O)(=O)c1cc(F)ccc1NS(=O)(=O)/C=C/c1ccc(Br)cc1 [Example 102, 2-[[(E)-2-(4-Bromophenyl)ethenyl]sulfonylamino]-5-fluoro-benzenesulfonamide]	850
NS(=O)(=O)c1ccc(F)cc1NS(=O)(=O)/C=C/c1ccccc1F [Example 67, 4-Fluoro-2-[[(E)-2-(2-fluorophenyl)ethenyl]sulfonylamino]benzenesulfonamide]	6400
NS(=O)(=O)c1ccccc1NS(=O)(=O)c1cccc(-c2ccc3[nH]ccc3c2)c1 [Example 120, 2-[[3-(1H-Indol-5-yl)phenyl]sulfonylamino]benzenesulfonamide]	3300
NS(=O)(=O)c1cc(F)ccc1NS(=O)(=O)/C=C/c1ccc(-c2cc3ccccc3o2)cc1 [Example 4, 2-[[(E)-2-(4-Benzofuran-2-ylphenyl)ethenyl]sulfonylamino]-5-fluoro-benzenesulfonamide]	79
Cc1nnc(COc2ccc(NS(=O)(=O)CCc3ccc(Cl)cc3)c(S(N)(=O)=O)c2)o1 [Example 47, 2-[2-(4-Chlorophenyl)ethylsulfonylamino]-5-[(5-methyl-1,3,4-oxadiazol-2-yl)methoxy]benzenesulfonamide]	1600
C/C(=C\S(=O)(=O)Nc1ccccc1S(N)(=O)=O)c1ccc(Cl)cc1 [Example 86, 2-[[(E)-2-(4-Chlorophenyl)prop-1-enyl]sulfonylamino]benzenesulfonamide]	700

Next, values leading:

IC50 [nM]	Compound
2200	CNS(=O)(=O)c1ccc2c(c1)-c1cc(S(=O)(=O)Nc3ccccc3S(N)(=O)=O)ccc1S2(=O)=O [Example 177, N-Methyl-N′-(2-sulfamoylphenyl)dibenzo[b,d]thiophene-2,8-disulfonamide 5,5-dioxide]
720	COc1cc(Cl)ccc1CCS(=O)(=O)Nc1cc(C)ccc1S(N)(=O)=O [Example 201, 2-(2-(4-Chloro-2-methoxyphenyl)ethylsulfonamido)-4-methylbenzenesulfonamide]
3900	NS(=O)(=O)c1cc(F)ccc1NS(=O)(=O)c1cccc(F)c1F [Example 147, 2,3-Difluoro-N-(4-fluoro-2-sulfamoyl-phenyl)benzenesulfonamide]
1100	NS(=O)(=O)c1cc(Br)ccc1NS(=O)(=O)c1cccc(-c2ccc(Cl)c(Cl)c2)c1 [Example 144, 5-Bromo-2-[[3-(3,4-dichlorophenyl)phenyl]sulfonylamino]benzenesulfonamide]
5700	COc1cccc(-c2cccc(S(=O)(=O)Nc3ccccc3S(N)(=O)=O)c2)n1 [Example 162, 3-(6-Methoxypyridin-2-yl)-N-(2-sulfamoylphenyl)benzenesulfonamide]
3200	NS(=O)(=O)c1cc(CO)ccc1NS(=O)(=O)c1cccc(Cl)c1Cl [Example 153, 2-(2,3-Dichloro-benzenesulfonylamino)-5-hydroxymethyl-benzenesulfonamide]
5500	NS(=O)(=O)c1cc(F)cc(F)c1NS(=O)(=O)CCc1ccc(Cl)c(Cl)c1 [Example 229, 2-(2-(3,4-Dichlorophenyl)ethylsulfonamido)-3,5-difluorobenzenesulfonamide]
8700	C[C@@](O)(C(=O)Nc1ccc(S(=O)(=O)Nc2ccccc2S(N)(=O)=O)cc1Cl)C(F)(F)F [Example 158, (2R)—N-[2-Chloro-4-[(2-sulfamoylphenyl)sulfamoyl]phenyl]-3,3,3-trifluoro-2-hydroxy-2-methyl-propanamide]
4600	NS(=O)(=O)c1c(NS(=O)(=O)CCc2ccc(Cl)c(Cl)c2)ccc2c1CCC2 [Example 236, 5-(2-(3,4-Dichlorophenyl)ethylsulfonamido)-2,3-dihydro-1H-indene-4-sulfonamide]
560	COc1cc(Cl)ccc1CCS(=O)(=O)Nc1ccc(C)cc1S(N)(=O)=O [Example 205, 2-(2-(4-Chloro-2-methoxyphenyl)ethylsulfonamido)-5-methylbenzenesulfonamide]
2700	NS(=O)(=O)c1cc(F)c(F)cc1NS(=O)(=O)c1cccc(Cl)c1Cl [Example 178, 2,3-Dichloro-N-(4,5-difluoro-2-sulfamoylphenyl)benzenesulfonamide]
370	COc1cc(Cl)ccc1CCS(=O)(=O)Nc1cc(C#N)ccc1S(N)(=O)=O [Example 181, 2-(2-(4-Chloro-2-methoxyphenyl)ethylsulfonamido)-4-cyanobenzenesulfonamide]
270	CSc1ccccc1/C=C/S(=O)(=O)Nc1ccccc1S(N)(=O)=O [Example 220, (E)-2-(2-(2-(methylthio)phenyl)vinylsulfonamido)benzenesulfonamide]
270	NS(=O)(=O)c1ccccc1NS(=O)(=O)CCc1ccc(C#CC2CCCCC2)nc1 [Example 188, 2-(2-(6-(cyclohexylethynyl)pyridin-3-yl)ethylsulfonamido)benzenesulfonamide]
